Where two headings read alike, the source gives them in different places.
How the values were obtained:
mutant G2019S LRRK2 = mutant G2019S LRRK2 (Homo sapiens (Human), UniProt Q5S007, G2019S); test: LRRK2 kinase assay (LanthaScreen), G2019S mutant; format: biochemical
Experimental: (§1) LRRK2 kinase activity was measured using Lantha Screen technology from Invitrogen. GST-tagged truncated LRRK2 from Invitrogen (Cat #PV4874) was incubated with a fluorescein-labeled peptide substrate based upon ezrin/radixin/moesin (ERM), also known as LRRKtide (Invitrogen cat #PR8976A), in the presence of a dose response of compound. Upon completion, the assay was stopped and detected with a terbium labeled anti-phospho-ERM antibody (Invitrogen, cat #PR8975A). […] Using Echo acoustic dispensing, 60 nL of compound was transferred to a low volume Corning 384-well assay plate. 3 μL of a working solution of substrate (200 nM LRRKtide, 2 mM ATP) prepared in assay buffer (50 mM HEPES, pH 7.5, 3 mM MgCl2, with 2 mM DTT and 0.01% Brij35 added fresh) was added to the 60 nL compound assay plate. The kinase reaction was started with 3 μL of a working solution of LRRK2 enzyme at a concentration of 4 μg/m L. The final reaction concentrations were 100 nM LRRKtide, 1 mM ATP, 2 μg/mL LRRK2 enzyme and a compound dose response with a top dose of 3 μM. The reaction was allowed to progress at room temperature for 30 minutes and then stopped with the addition of 6 μL of detection buffer (20 mM Tris pH 7.6, 0.01% NP-40, 6 mM EDTA with 2 nM terbium labeled antiphospho-ERM). […] All final concentrations of substrate ATP and enzyme were the same.

[1] = biological target: LRRK2, WT (GST-tagged truncated LRRK2) (Homo sapiens, UniProt Q5S007); test: LRRK2 kinase assay (LanthaScreen), wild type; format: biochemical
Experimental: as §1

[2] = G2019S mutant LRRK2, LanthaScreen, LRRKtide substrate, read-out: LRRK2, G2019S IC50
[3] = wild type LRRK2, LanthaScreen, LRRKtide substrate
[4] = G2019S mutant LRRK2, data obtained using the formate salt of the Example, read-out: LRRK2, G2019S IC50
[5] = wild type LRRK2, data obtained using the formate salt of the Example

Chain of mutant G2019S LRRK2 (Q5S007 whole entry G2019S, the tested form may be a part): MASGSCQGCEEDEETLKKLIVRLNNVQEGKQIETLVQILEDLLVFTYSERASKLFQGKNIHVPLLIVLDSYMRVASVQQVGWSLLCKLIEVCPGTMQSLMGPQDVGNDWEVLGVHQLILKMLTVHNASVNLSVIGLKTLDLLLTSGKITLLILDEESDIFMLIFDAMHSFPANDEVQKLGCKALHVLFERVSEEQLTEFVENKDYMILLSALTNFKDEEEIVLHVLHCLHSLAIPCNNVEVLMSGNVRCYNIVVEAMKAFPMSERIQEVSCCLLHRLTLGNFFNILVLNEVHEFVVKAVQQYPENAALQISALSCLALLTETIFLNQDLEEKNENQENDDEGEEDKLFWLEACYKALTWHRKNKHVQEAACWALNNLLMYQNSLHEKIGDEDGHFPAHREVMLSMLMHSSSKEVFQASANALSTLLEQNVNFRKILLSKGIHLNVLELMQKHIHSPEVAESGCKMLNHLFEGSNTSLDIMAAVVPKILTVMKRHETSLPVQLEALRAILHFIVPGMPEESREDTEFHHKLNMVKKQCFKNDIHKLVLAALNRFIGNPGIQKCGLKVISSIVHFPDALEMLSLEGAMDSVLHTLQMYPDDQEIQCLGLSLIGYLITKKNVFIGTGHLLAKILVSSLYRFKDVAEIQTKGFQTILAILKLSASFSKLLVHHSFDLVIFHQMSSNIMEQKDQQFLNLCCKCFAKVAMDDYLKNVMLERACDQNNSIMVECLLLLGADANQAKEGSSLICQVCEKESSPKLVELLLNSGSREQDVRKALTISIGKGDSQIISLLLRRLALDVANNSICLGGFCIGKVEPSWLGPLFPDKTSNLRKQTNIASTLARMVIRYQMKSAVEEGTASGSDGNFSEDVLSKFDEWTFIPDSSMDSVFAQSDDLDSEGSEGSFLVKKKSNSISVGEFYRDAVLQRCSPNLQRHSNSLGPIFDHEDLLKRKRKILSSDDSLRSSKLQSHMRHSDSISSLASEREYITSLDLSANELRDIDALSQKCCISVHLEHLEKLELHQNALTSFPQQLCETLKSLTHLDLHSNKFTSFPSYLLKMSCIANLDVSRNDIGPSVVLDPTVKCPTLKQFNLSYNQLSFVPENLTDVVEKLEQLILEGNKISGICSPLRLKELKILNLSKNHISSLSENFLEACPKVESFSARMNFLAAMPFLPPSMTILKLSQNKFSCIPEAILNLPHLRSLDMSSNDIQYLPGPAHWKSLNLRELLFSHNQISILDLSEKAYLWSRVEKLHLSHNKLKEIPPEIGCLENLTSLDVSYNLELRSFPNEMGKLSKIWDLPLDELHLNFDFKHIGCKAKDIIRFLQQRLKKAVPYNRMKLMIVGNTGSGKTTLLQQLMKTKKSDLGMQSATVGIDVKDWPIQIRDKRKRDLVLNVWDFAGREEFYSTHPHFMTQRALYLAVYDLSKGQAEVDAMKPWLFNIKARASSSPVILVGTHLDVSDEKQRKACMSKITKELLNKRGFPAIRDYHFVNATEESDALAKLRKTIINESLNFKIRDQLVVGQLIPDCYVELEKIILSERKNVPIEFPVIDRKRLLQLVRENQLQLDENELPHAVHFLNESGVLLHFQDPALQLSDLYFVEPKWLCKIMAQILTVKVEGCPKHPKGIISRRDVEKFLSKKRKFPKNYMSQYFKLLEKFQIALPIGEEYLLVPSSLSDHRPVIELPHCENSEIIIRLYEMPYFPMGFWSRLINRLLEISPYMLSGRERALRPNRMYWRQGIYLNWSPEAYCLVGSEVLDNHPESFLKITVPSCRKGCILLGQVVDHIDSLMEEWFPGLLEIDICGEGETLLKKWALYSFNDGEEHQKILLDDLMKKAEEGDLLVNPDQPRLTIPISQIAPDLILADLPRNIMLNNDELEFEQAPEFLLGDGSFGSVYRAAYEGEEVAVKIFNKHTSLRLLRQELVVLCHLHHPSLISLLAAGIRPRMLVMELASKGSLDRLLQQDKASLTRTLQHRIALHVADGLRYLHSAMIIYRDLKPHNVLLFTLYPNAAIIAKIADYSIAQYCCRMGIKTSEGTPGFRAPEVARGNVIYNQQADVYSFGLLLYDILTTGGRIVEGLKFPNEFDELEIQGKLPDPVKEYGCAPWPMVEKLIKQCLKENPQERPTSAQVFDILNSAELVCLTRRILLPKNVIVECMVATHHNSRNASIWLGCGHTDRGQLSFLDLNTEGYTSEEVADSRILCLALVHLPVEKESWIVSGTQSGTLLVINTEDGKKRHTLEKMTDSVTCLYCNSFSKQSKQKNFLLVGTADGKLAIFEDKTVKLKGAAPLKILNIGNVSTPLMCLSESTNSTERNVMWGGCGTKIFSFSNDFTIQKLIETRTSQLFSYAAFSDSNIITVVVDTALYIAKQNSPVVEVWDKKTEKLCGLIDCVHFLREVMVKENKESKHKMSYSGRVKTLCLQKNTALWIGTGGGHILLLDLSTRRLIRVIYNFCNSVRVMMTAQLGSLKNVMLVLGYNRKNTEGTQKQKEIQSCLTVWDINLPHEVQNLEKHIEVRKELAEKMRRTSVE

Structure (SMILES) | IC50 (mutant G2019S LRRK2; [2]) | IC50 [1, 3] | also measured
CN1CC(n2c(Cc3ncn(C)n3)nc3cnc4ccc(Cl)cc4c32)C(F)(F)C1 (stereo not drawn) [Example 84, 8-chloro-1-(4,4-difluoro-1-methylpyrrolidin-3-yl)-2-[(1-methyl-1H-1,2,4-triazol-3-yl)methyl]-1H-imidazo[4,5-c]quinoline] | 18.2 nM | 10.2 nM | –
Cc1nc2cnc3ccc(Cl)cc3c2n1C1CCOC(CC#N)C1 (stereo not drawn) [Example 31, [cis-4-(8-chloro-2-methyl-1H-imidazo[4,5-c]quinolin-1-yl)tetrahydro-2H-pyran-2-yl]acetonitrile] | 8.67 nM | 7.86 nM | –
Cc1nc(Cc2nc3cnc4ccc(Cl)cc4c3n2C2CCOCC2(F)F)no1 (stereo not drawn) [Example 75] | 26.5 nM | 25.7 nM | –
Fc1ccc2ncc3nc(Cc4csnn4)n(C4CCC(F)C4)c3c2c1 (stereo not drawn) [Example 79, 8-fluoro-1-[cis-3-fluorocyclopentyl]-2-(1,2,3-thiadiazol-4-ylmethyl)-1H-imidazo[4,5-c]quinoline] | 9.75 nM | 9.73 nM | –
C[C@@H]1C[C@H](n2c(Cc3cnc(C(F)(F)F)cn3)nc3cnc4ccc(C#N)cc4c32)CCO1 [Example 39, 1-[(2R,4R)-2-methyltetrahydro-2H-pyran-4-yl]-2-{[5-(trifluoromethyl)pyrazin-2-yl]methyl}-1H-imidazo[4,5-c]quinoline-8-carbonitrile] | 9.3 nM | 17.4 nM | –
Cc1cn(Cc2nc3cnc4ccc(Cl)cc4c3n2C2CCOCC2(F)F)nn1 (stereo not drawn) [enantiomer of Example 46, 8-chloro-1-(3,3-difluorotetrahydro-2H-pyran-4-yl)-2-[(4-methyl-1H-1,2,3-triazol-1-yl)methyl]-1H-imidazo[4,5-c]quinoline] | – | – | IC50 (mutant G2019S LRRK2; LanthaScreen, LRRKtide substrate, 1 mM ATP, read-out: LRRK2, G2019S mutant IC50): 16.1 nM; IC50 ([1]; LanthaScreen, LRRKtide substrate, 1 mM ATP): 21.4 nM
Cc1cn(Cc2nc3cnc4ccc(Cl)cc4c3n2C2CN(C)CC2(F)F)nn1 (stereo not drawn) [Example 82, 8-chloro-1-(4,4-difluoro-1-methylpyrrolidin-3-yl)-2-[(4-methyl-1H-1,2,3-triazol-1-yl)methyl]-1H-imidazo[4,5-c]quinoline] | 4.64 nM | 6.33 nM | –
C[C@@H]1C[C@H](n2c(CCC#N)nc3cnc4ccc(Cl)cc4c32)CCO1 [Example 80, 3-{8-chloro-1-[(2R,4R)-2-methyltetrahydro-2H-pyran-4-yl]-1H-imidazo[4,5-c]quinolin-2-yl}propanenitrile] | 11.3 nM | 9.4 nM | –
Cc1cc(Cc2nc3cnc4ccc(C#N)cc4c3n2[C@@H]2CC[C@H](F)C2)no1 (racemic) [Example 68, 1-[cis-3-fluorocyclopentyl]-2-[(5-methyl-1,2-oxazol-3-yl)methyl]-1H-imidazo[4,5-c]quinoline-8-carbonitrile] | – | – | IC50 (mutant G2019S LRRK2; [4]): 12.3 nM; IC50 [1, 5]: 8.32 nM
Cc1cnc(Cc2nc3cnc4ccc(C#N)cc4c3n2[C@@H]2CCN(C)C2)cn1 [Example 33, 2-[(5-methylpyrazin-2-yl)methyl]-1-[(3R)-1-methylpyrrolidin-3-yl]-1H-imidazo[4,5-c]quinoline-8-carbonitrile] | – | – | IC50 (mutant G2019S LRRK2; [4]): 6.82 nM; IC50 [1, 5]: 8.35 nM
Cc1cn(Cc2nc3cnc4ccc(Cl)cc4c3n2C2CN(C)CC2(F)F)nn1 (stereo not drawn) [Example 48, 8-chloro-1-(4,4-difluoro-1-methylpyrrolidin-3-yl)-2-[(4-methyl-1H-1,2,3-triazol-1-yl)methyl]-1H-imidazo[4,5-c]quinoline] | 0.938 nM | 3.27 nM | –
Cc1cnc(Cc2nc3cnc4ccc(C#N)cc4c3n2[C@@H]2CCN(C)C2)o1 [Example 38, 2-[(5-methyl-1,3-oxazol-2-yl)methyl]-1-[(3R)-1-methylpyrrolidin-3-yl]-1H-imidazo [4,5-c]quinoline-8-carbonitrile] | 12.9 nM | 7.49 nM | –
Cc1nc(Cc2nc3cnc4ccc(Cl)cc4c3n2[C@@H]2CCN(C)C2)no1 [Example 42, 8-chloro-2-[(5-methyl-1,2,4-oxadiazol-3-yl)methyl]-1-[(3R)-1-methylpyrrolidin-3-yl]-1H-imidazo[4,5-c]quinoline] | 26 nM | 12.9 nM | –
CC1(C)CC(n2c(Cn3cncn3)nc3cnc4ccc(Cl)cc4c32)CCO1 (stereo not drawn) [Example 71, 8-chloro-1-(2,2-dimethyltetrahydro-2H-pyran-4-yl)-2-(1H-1,2,4-triazol-1-ylmethyl)-1H-imidazo[4,5-c]quinoline] | 11.9 nM | 13.7 nM | –

More lines, in order of falling IC50 (mutant G2019S LRRK2; [2]), values ahead:

IC50 (mutant G2019S LRRK2; [2]) | IC50 [1, 3] | Structure (SMILES) | also measured
8.55 nM | 8.03 nM | Cc1cnc(Cc2nc3cnc4ccc(Cl)cc4c3n2[C@@H]2CCN(C)C2)cn1 [Example 67, 8-chloro-2-[(5-methylpyrazin-2-yl)methyl]-1-[(3R)-1-methylpyrrolidin-3-yl]-1H-imidazo[4,5-c]quinoline] | –
7.5 nM | 16.9 nM | Cc1nnn(Cc2nc3cnc4ccc(C(F)(F)F)cc4c3n2[C@@H]2CCO[C@H](C)C2)n1 [Example 81, 1-[(2R,4R)-2-methyltetrahydro-2H-pyran-4-yl]-2-[(5-methyl-2H-tetrazol-2-yl)methyl]-8-(trifluoromethyl)-1H-imidazo[4,5-c]quinoline] | –
6.49 nM | 11.3 nM | COCc1cn(Cc2nc3cnc4ccc(Cl)cc4c3n2C2CCOCC2(F)F)nn1 (stereo not drawn) [Example 55, 8-chloro-1-(3,3-difluorotetrahydro-2H-pyran-4-yl)-2-{[4-(methoxymethyl)-1H-1,2,3-triazol-1-yl]methyl}-1H-imidazo[4,5-c]quinoline] | –
6.48 nM | 6.46 nM | Cc1nc(Cc2nc3cnc4ccc(C#N)cc4c3n2[C@@H]2CCN(CC(F)(F)F)C2)no1 [Example 56, 2-[(5-methyl-1,2,4-oxadiazol-3-yl)methyl]-1-[(3R)-1-(2,2,2-trifluoroethyl)pyrrolidin-3-yl]-1H-imidazo[4,5-c]quinoline-8-carbonitrile] | –
6.48 nM | 6.35 nM | FC1(F)COCCC1n1c(Cn2cc(C3CC3)nn2)nc2cnc3ccc(Cl)cc3c21 (stereo not drawn) [Example 94, 8-chloro-2-[(4-cyclopropyl-1H-1,2,3-triazol-1-yl)methyl]-1-(3,3-difluorotetrahydro-2H-pyran-4-yl)-1H-imidazo[4,5-c]quinolone] | –
5.98 nM | 4.59 nM | Cc1nc(Cc2nc3cnc4ccc(C#N)cc4c3n2C2CN(C)CC2(F)F)no1 (stereo not drawn) [Example 32, 1-(4,4-difluoro-1-methylpyrrolidin-3-yl)-2-[(5-methyl-1,2,4-oxadiazol-3-yl)methyl]-1H-imidazo[4,5-c]quinoline-8-carbonitrile] | –
5.82 nM | 8.13 nM | Cc1nc(Cc2nc3cnc4ccc(Cl)cc4c3n2C2CN(C)CC2(F)F)no1 (stereo not drawn) [Example 45, 8-chloro-1-(4,4-difluoro-1-methylpyrrolidin-3-yl)-2-[(5-methyl-1,2,4-oxadiazol-3-yl)methyl]-1H-imidazo[4,5-c]quinoline] | –
5.4 nM | 7.43 nM | COc1cnn(Cc2nc3cnc4ccc(C#N)cc4c3n2[C@@H]2CCO[C@H](C)C2)c1 [Example 57, 2-[(4-methoxy-1H-pyrazol-1-yl)methyl]-1-[(2R,4R)-2-methyltetrahydro-2H-pyran-4-yl]-1H-imidazo[4,5-c]quinoline-8-carbonitrile] | –
5.04 nM | 5.53 nM | Cc1nnn(Cc2nc3cnc4ccc(C#N)cc4c3n2[C@@H]2CCN(C)C2)n1 [Example 34, 1-[(3R)-1-methylpyrrolidin-3-yl]-2-[(5-methyl-2H-tetrazol-2-yl)methyl]-1H-imidazo [4,5-c]quinoline-8-carbonitrile] | –
4.59 nM | 7.18 nM | Cc1nn2cc(Cc3nc4cnc5ccc(F)cc5c4n3[C@@H]3CCO[C@H](C)C3)nc2s1 [Example 28, 8-fluoro-2-[(2-methylimidazo[2,1-b][1,3,4]thiadiazol-6-yl)methyl]-1-[(2R,4R)-2-methyltetrahydro-2H-pyran-4-yl]-1H-imidazo[4,5-c]quinoline] | –
3.87 nM | 11.1 nM | COc1cnn(Cc2nc3cnc4ccc(C(F)(F)F)cc4c3n2[C@@H]2CCO[C@H](C)C2)c1 [Example 41, 2-[(4-methoxy-1H-pyrazol-1-yl)methyl]-1-[(2R,4R)-2-methyltetrahydro-2H-pyran-4-yl]-8-(trifluoromethyl)-1H-imidazo[4,5-c]quinoline] | –
3.5 nM | 4.6 nM | C[C@@H]1C[C@H](n2c(Cc3cnc(CO)cn3)nc3cnc4ccc(Cl)cc4c32)CCO1 [Example 95, [5-({8-chloro-1-[(2R,4R)-2-methyltetrahydro-2H-pyran-4-yl]-1H-imidazo[4,5-c]quinolin-2-yl}methyl)pyrazin-2-yl]methanol] | –
3 nM | 5.35 nM | C[C@@H]1C[C@H](n2c(Cc3nccs3)nc3cnc4ccc(Cl)cc4c32)CCO1 [Example 58, 8-chloro-1-[(2R,4R)-2-methyltetrahydro-2H-pyran-4-yl]-2-(1,3-thiazol-2-ylmethyl)-1H-imidazo[4,5-c]quinoline] | –

Reference: patent US11312713B2, “Imidazo[4,5-C]quinoline derivatives as LRRK2 inhibitors” (Pfizer Inc., priority 2017, dated 2022)
